Laboratory results reported in PubChem BioAssay (NCI).
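Method: 48-hour compound exposure of cells in 96-well plates, five concentrations, linear interpolation of endpoints. GI50 is the concentration that inhibits growth by half. At the TGI there is no net growth.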

Columns and labels:
Experiment in all cases: NCI anticancer screen, dose series, 48 h
SK-MEL-5 melanoma = tested on: SK-MEL-5 melanoma
RXF 393 renal = tested on: RXF 393 renal
A498 renal = tested on: A498 renal
OVCAR-5 ovarian = tested on: OVCAR-5 ovarian
HOP-62 NSCLC = tested on: HOP-62 NSCLC
IGROV1 ovarian = tested on: IGROV1 ovarian
NCI-H522 lung = tested on: NCI-H522 lung
MDA-MB-231 breast = tested on: MDA-MB-231 breast
MCF7 breast = tested on: MCF7 breast
PC-3 prostate = tested on: PC-3 prostate

## O=C(OCCOCCOC(=O)c1c[nH]cc1-c1ccccc1)c1c[nH]cc1-c1ccccc1
SK-MEL-5 melanoma
  TGI: 30.5 µM
RXF 393 renal
  TGI: 35.6 µM
A498 renal
  TGI: 53.1 µM
OVCAR-5 ovarian
  TGI: 62.2 µM
HOP-62 NSCLC
  TGI: 31.7 µM
IGROV1 ovarian
  TGI: 42.5 µM
NCI-H522 lung
  TGI: 29.6 µM

## Cc1ccc(S(=O)(=O)N2CCCCC2CCO)cc1 (stereo not drawn)
SK-MEL-5 melanoma
  TGI: > 100 µM
RXF 393 renal
  TGI: > 100 µM
A498 renal
  TGI: > 100 µM
OVCAR-5 ovarian
  TGI: > 100 µM
HOP-62 NSCLC
  TGI: > 100 µM
IGROV1 ovarian
  TGI: > 100 µM
NCI-H522 lung
  TGI: > 100 µM

## O=C1c2cc3c(cc2-c2c1c1ccc([N+](=O)[O-])cc1c(=O)n2CCCCl)OCO3
SK-MEL-5 melanoma
  GI50: 0.246 µM
  TGI: 2.59 µM
A498 renal
  GI50: 0.367 µM
  TGI: 5.93 µM
OVCAR-5 ovarian
  GI50: 634 nM
  TGI: > 100 µM
MDA-MB-231 breast
  TGI: > 24.9 µM
HOP-62 NSCLC
  GI50: 0.383 µM
  TGI: > 100 µM
MCF7 breast
  GI50: 333 nM
PC-3 prostate
  GI50: 2400 nM
  TGI: > 100 µM
NCI-H522 lung
  GI50: > 85.9 µM
  TGI: > 100 µM

## COc1ccc2c(CNCCCCO)cc3cc4c(cc3c2c1)OCO4
SK-MEL-5 melanoma
  GI50: 0.818 µM
  TGI: 2.13 µM
RXF 393 renal
  GI50: 680 nM
  TGI: 2.49 µM
A498 renal
  GI50: 1.16 µM
  TGI: 2.98 µM
OVCAR-5 ovarian
  GI50: 2720 nM
  TGI: 8.95 µM
MDA-MB-231 breast
  GI50: 2.06 µM
  TGI: 6.2 µM
HOP-62 NSCLC
  GI50: 1.98 µM
  TGI: 10.6 µM
IGROV1 ovarian
  GI50: 0.407 µM
  TGI: 4.75 µM
PC-3 prostate
  GI50: 986 nM
  TGI: 7.18 µM
NCI-H522 lung
  GI50: 0.228 µM
  TGI: 2.93 µM

## COC(=O)C1Cc2c([nH]c3ccccc23)C=N1 (stereo not drawn)
SK-MEL-5 melanoma
  TGI: > 100 µM
RXF 393 renal
  TGI: > 100 µM
A498 renal
  TGI: > 100 µM
OVCAR-5 ovarian
  TGI: > 100 µM
HOP-62 NSCLC
  TGI: > 100 µM
IGROV1 ovarian
  TGI: > 100 µM
NCI-H522 lung
  TGI: > 100 µM

## C=C1C(=O)O[C@H]2[C@H]1CC/C(COC(=O)CCC(=O)OC/C1=C/CC[C@@]3(C)O[C@H]3[C@H]3OC(=O)C(=C)[C@@H]3CC1)=C\CC[C@@]1(C)O[C@@H]21
SK-MEL-5 melanoma
  GI50: 2.05 µM
  TGI: 5.27 µM
RXF 393 renal
  GI50: 661 nM
  TGI: 2.17 µM
A498 renal
  GI50: 10.5 µM
  TGI: 23.6 µM
OVCAR-5 ovarian
  GI50: 2130 nM
  TGI: 6.03 µM
MDA-MB-231 breast
  GI50: 1.65 µM
  TGI: 3.72 µM
HOP-62 NSCLC
  GI50: 3.21 µM
  TGI: 10.6 µM
IGROV1 ovarian
  GI50: 2.26 µM
  TGI: 8.83 µM
PC-3 prostate
  GI50: 2580 nM
  TGI: 7.86 µM
NCI-H522 lung
  GI50: 1.43 µM
  TGI: 3.07 µM

## Cc1cc2c(=O)cc(-c3ccc(Cl)cc3)oc2c(C(=O)O)c1C
SK-MEL-5 melanoma
  TGI: > 100 µM
RXF 393 renal
  TGI: > 100 µM
OVCAR-5 ovarian
  TGI: > 100 µM
IGROV1 ovarian
  TGI: > 100 µM
NCI-H522 lung
  TGI: > 100 µM

## CCOC(=O)[C@H]1Nc2ccc(O)cc2C2c3ccccc3CC21 (stereo partly drawn)
SK-MEL-5 melanoma
  TGI: > 100 µM
RXF 393 renal
  TGI: 91.9 µM
A498 renal
  TGI: > 100 µM
OVCAR-5 ovarian
  TGI: > 100 µM
HOP-62 NSCLC
  TGI: > 100 µM
IGROV1 ovarian
  TGI: > 100 µM
NCI-H522 lung
  TGI: > 100 µM

## N#C/C(=C/N1CCN(C(=O)c2ccco2)C1=S)C(N)=O
SK-MEL-5 melanoma
  GI50: 16.5 µM
  TGI: 38.9 µM
RXF 393 renal
  GI50: 19200 nM
  TGI: 82.2 µM
MDA-MB-231 breast
  GI50: 13.1 µM
  TGI: 37 µM
HOP-62 NSCLC
  GI50: 25.6 µM
  TGI: 66.9 µM
MCF7 breast
  GI50: 1710 nM
  TGI: 21 µM
IGROV1 ovarian
  GI50: 24 µM
  TGI: 86.8 µM
PC-3 prostate
  GI50: 35600 nM
  TGI: > 100 µM
NCI-H522 lung
  GI50: 18.7 µM
  TGI: 44.2 µM

## Cc1ccc(/C=C2\CCOC2=O)cc1
SK-MEL-5 melanoma
  GI50: > 100 µM
  TGI: > 100 µM
RXF 393 renal
  GI50: > 100000 nM
  TGI: > 100 µM
A498 renal
  GI50: 11.8 µM
  TGI: 97.3 µM
OVCAR-5 ovarian
  GI50: > 100000 nM
  TGI: > 100 µM
MDA-MB-231 breast
  GI50: > 100 µM
  TGI: > 100 µM
HOP-62 NSCLC
  GI50: > 100 µM
  TGI: > 100 µM
MCF7 breast
  GI50: > 100000 nM
  TGI: > 100 µM
IGROV1 ovarian
  GI50: 82.5 µM
  TGI: > 100 µM
PC-3 prostate
  GI50: > 100000 nM
  TGI: > 100 µM

## Cc1ccccc1NC(=O)c1[nH]c(=S)nc(N)c1-c1ccccc1C
SK-MEL-5 melanoma
  TGI: > 100 µM
RXF 393 renal
  TGI: > 100 µM
A498 renal
  TGI: > 100 µM
OVCAR-5 ovarian
  TGI: > 100 µM
HOP-62 NSCLC
  TGI: > 100 µM
IGROV1 ovarian
  TGI: > 100 µM
NCI-H522 lung
  TGI: > 100 µM

## Cc1c(Cl)cccc1NC(=O)C(=O)C1C(=O)NC(=O)NC1=O
SK-MEL-5 melanoma
  TGI: > 100 µM
RXF 393 renal
  TGI: > 100 µM
A498 renal
  TGI: > 100 µM
OVCAR-5 ovarian
  TGI: > 100 µM
HOP-62 NSCLC
  TGI: > 100 µM
IGROV1 ovarian
  TGI: > 100 µM
NCI-H522 lung
  TGI: > 100 µM

## Cn1cccc1-c1cc(-c2ccc(Br)cc2)nc(N)c1C#N
SK-MEL-5 melanoma
  GI50: > 100 µM
  TGI: > 100 µM
RXF 393 renal
  GI50: 30300 nM
  TGI: > 100 µM
A498 renal
  GI50: 91.8 µM
  TGI: > 100 µM
OVCAR-5 ovarian
  GI50: > 100000 nM
  TGI: > 100 µM
MDA-MB-231 breast
  GI50: 69.9 µM
  TGI: > 100 µM
MCF7 breast
  GI50: > 100000 nM
  TGI: > 100 µM
IGROV1 ovarian
  GI50: 70 µM
  TGI: > 100 µM
PC-3 prostate
  GI50: > 100000 nM
  TGI: > 100 µM
NCI-H522 lung
  GI50: 66 µM
  TGI: > 100 µM

## CC(C)(C)NNc1c([N+](=O)[O-])cnn(-c2ccccc2)c1=O
SK-MEL-5 melanoma
  TGI: 11.1 µM
RXF 393 renal
  TGI: 18.1 µM
A498 renal
  TGI: > 100 µM
OVCAR-5 ovarian
  TGI: 15.5 µM
HOP-62 NSCLC
  TGI: 22.3 µM
MCF7 breast
  TGI: 14.1 µM
IGROV1 ovarian
  TGI: 38.6 µM
PC-3 prostate
  TGI: 3.23 µM
NCI-H522 lung
  TGI: 4.72 µM

## CC(C)[C@]12O[C@H]1[C@@H]1O[C@]13[C@]1(O[C@H]1C[C@H]1c4c(C(=O)c5ccccc5)oc(OC(=O)c5ccccc5)c4CC[C@@]13C)[C@@H]2O
RXF 393 renal
  GI50: 19.6 nM
  TGI: 0.0497 µM
A498 renal
  GI50: 0.0179 µM
  TGI: 0.0614 µM
OVCAR-5 ovarian
  GI50: 40.1 nM
  TGI: > 100 µM
MDA-MB-231 breast
  GI50: 0.0463 µM
  TGI: 43.7 µM
HOP-62 NSCLC
  GI50: 0.0278 µM
  TGI: 0.735 µM
MCF7 breast
  GI50: 13.9 nM
  TGI: 19.9 µM
IGROV1 ovarian
  GI50: 0.028 µM
  TGI: 9.74 µM
PC-3 prostate
  GI50: 35.8 nM
NCI-H522 lung
  GI50: 0.0169 µM
  TGI: 0.0913 µM

## CO/N=C1/c2cc(OC)ccc2-c2c(NOC)nc3ccccc3c21
SK-MEL-5 melanoma
  GI50: 13.9 µM
  TGI: 36 µM
A498 renal
  GI50: 16.1 µM
  TGI: 36.9 µM
OVCAR-5 ovarian
  GI50: 22000 nM
  TGI: 71.6 µM
MDA-MB-231 breast
  GI50: 12.6 µM
  TGI: 40.1 µM
HOP-62 NSCLC
  GI50: 24.6 µM
  TGI: 39.4 µM
MCF7 breast
  GI50: 27100 nM
  TGI: > 100 µM
IGROV1 ovarian
  GI50: 18 µM
  TGI: 44.2 µM
PC-3 prostate
  GI50: 21300 nM
  TGI: 88.2 µM
NCI-H522 lung
  GI50: 26.6 µM
  TGI: > 100 µM
